From US11440903B2, “Salt form and crystal form of compound as FGFR4 inhibitor and preparation method thereof” (GUANGDONG ZHONGSHENG PHARMACEUTICAL CO., LTD, priority 2017, dated 2022)

Test: Stability of the crystal form on stirring as suspension in solvent (40° C., 2 days)
Type: physicochemical
Details: stirring in methanol at 40° C. for 2 days
Method in brief: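 Suspensions of compound in acetonitrile-water (1:1), ethyl acetate, methanol or ethanol stirred in the dark at 40° C. for 2 days, centrifuged, solids vacuum-dried at 30° C. overnight (room temperature for formula (II)). Some samples first dissolved under ultrasound and partly evaporated. Resulting crystal form identified by XRPD, with DSC and TGA.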

| stability in the methanol solution | SMILES |
| --- | --- |
| substantially high stability | C=CC(=O)N[C@H]1COC[C@H]1Nc1ncc(/C=C(\F)c2c(Cl)c(OC)cc(OC)c2Cl)cn1 [Crystal Form B] |
| substantially high stability | C=CC(=O)N[C@H]1COC[C@H]1Nc1ncc(/C=C(\F)c2c(Cl)c(OC)cc(OC)c2Cl)cn1.CS(=O)(=O)O [Crystal Form E] |
